According to patent publication US8916567B2, “Certain crystalline hydrates, pharmaceutical compositions thereof and methods for preparation and use thereof” (Universal Technology Alliance, Inc., priority 2009, dated 2014):

Experiments:
E. feacalis = assay: Minimum inhibitory concentration (MIC) in vitro, agar dilution method; assay type: cell-based; conditions: hydrate; for MIC50 / MIC90 / MICrange: E. feacalis (5 strains), clinically isolated
Summary of the method: (§1)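 CLSI agar dilution; clinical isolates, Sichuan/Beijing, Mar 2007–May 2008. Stock in DMSO, diluted with sterile water. Read-out: MIC per strain, summarised as MIC50/MIC90/range.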

E. feacium = assay: as above; assay type: cell-based; conditions: hydrate; for MIC50 / MIC90 / MICrange: E. feacium (5 strains), clinically isolated
Summary of the method: as §1

S. epidermidis MRSE = assay: as above; assay type: cell-based; conditions: hydrate; for MIC50 / MIC90 / MICrange: S. ep MRSE (10 strains), clinically isolated
Summary of the method: as §1

S. epidermidis MSSE = assay: as above; assay type: cell-based; conditions: hydrate; for MIC50 / MIC90 / MICrange: S. ep MSSE (10 strains), clinically isolated
Summary of the method: as §1

[1] = system: Staphylococcus aureus MRSA; assay: as above; assay type: cell-based; conditions: hydrate; for MIC50 / MIC90 / MICrange: S. MRSA (10 strains), clinically isolated
Summary of the method: as §1

[2] = system: Staphylococcus aureus MSSA; assay: as above; assay type: cell-based; conditions: hydrate; for MIC50 / MIC90 / MICrange: S. MSSA (11 strains), clinically isolated
Summary of the method: as §1

Staphylococcus aureus = assay: Minimum inhibitory concentration (MIC) in vitro, agar dilution method, quality control strain; assay type: cell-based; conditions: strain S. AT C C25923 (Table 7 No. 1); hydrate
Summary of the method: as §1

[3] = Solubility in different solvents according to Chinese Pharmacopeia (2005 edition); assay type: physicochemical; conditions: for Solubility compared with the anhydride: different solvents; for Result: at the given solute:solvent ratio
Procedure: The solubility of the (S)—[N-3-(3′-fluoro-4′-(4″-phenylpiperazinyl))phenyl-2-oxo-5-oxazolelidinyl]methylacetamide hydrates was tested with different solvents, and the test results are shown in Tables 15-19. The solubility was measured according to Chinese Pharmacopeia (2005 edition).

[4] = strain Efa 116 (Table 8 No. 16)
[5] = strain Efa 907 (Table 8 No. 19)
[6] = strain Efa 3006 (Table 8 No. 18)
[7] = strain Efa 33748 (Table 8 No. 17)
[8] = strain Efm 171 (Table 8 No. 25)
[9] = strain Efm 197 (Table 8 No. 22)
[10] = strain S. ep MRSE4 (Table 8 No. 9)
[11] = strain S. ep MRSE20 (Table 8 No. 6)
[12] = strain S. ep MRSE87 (Table 8 No. 13)
[13] = strain S. ep MRSE90 (Table 8 No. 10)
[14] = strain S. ep MRSE101 (Table 8 No. 7)
[15] = strain S. ep MRSE105 (Table 8 No. 11)
[16] = strain S. ep MRSE140 (Table 8 No. 14)
[17] = strain S. ep MRSE142 (Table 8 No. 12)
[18] = strain S. ep MRSE210 (Table 8 No. 15)
[19] = strain S. ep MRSE211 (Table 8 No. 8)
[20] = strain S. ep MSSE87 (Table 7 No. 23)
[21] = strain S. ep MSSE88 (Table 8 No. 5)
[22] = strain S. ep MSSE113 (Table 7 No. 24)
[23] = strain S. ep MSSE116 (Table 7 No. 25)
[24] = strain S. ep MSSE118 (Table 8 No. 2)
[25] = strain S. ep MSSE119 (Table 7 No. 27)
[26] = strain S. ep MSSE137 (Table 8 No. 4)
[27] = strain S. ep MSSE140 (Table 8 No. 3)
[28] = strain S. ep MSSE142 (Table 7 No. 26)
[29] = strain S. ep MSSE153 (Table 8 No. 1)
[30] = strain S. MRSA 29 (Table 7 No. 15)
[31] = strain S. MRSA 101 (Table 7 No. 14)
[32] = strain S. MRSA 201 (Table 7 No. 13)
[33] = strain S. MRSA B27 (Table 7 No. 21)
[34] = strain S. MRSA B105 (Table 7 No. 17)
[35] = strain S. MRSA B143 (Table 7 No. 19)
[36] = strain S. MRSA B151 (Table 7 No. 20)
[37] = strain S. MRSA B164 (Table 7 No. 16)
[38] = strain S. MRSA B199 (Table 7 No. 22)
[39] = strain S. MRSA B617 (Table 7 No. 18)
[40] = strain S. MSSA 123 (Table 7 No. 3)
[41] = strain S. MSSA 187 (Table 7 No. 7)
[42] = strain S. MSSA 195 (Table 7 No. 6)
[43] = strain S. MSSA 195 (Table 7 No. 12)
[44] = strain S. MSSA 201 (Table 7 No. 11)
[45] = strain S. MSSA 232 (Table 7 No. 2)
[46] = strain S. MSSA 275 (Table 7 No. 10)
[47] = strain S. MSSA 466 (Table 7 No. 8)
[48] = strain S. MSSA 519 (Table 7 No. 9)
[49] = strain S. MSSA 520 (Table 7 No. 4)
[50] = strain S. MSSA 580 (Table 7 No. 5)

## CC(=O)NC[C@H]1CN(c2ccc(N3CCN(c4ccccc4)CC3)c(F)c2)C(=O)O1 [2/7 hydrate, (S)—[N-3-(3′-fluoro-4′-(4″-phenylpiperazinyl))phenyl-2-oxo-5-oxazolidinyl]methyl acetamide 2/7 hydrate]
E. feacalis
  MIC50: 0.25 µg/mL
  MIC90: 0.5 µg/mL
  MICrange: 0.125 to 0.5 µg/mL
E. feacalis; [4]
  MIC: 0.5 µg/mL
E. feacalis; [5]
  MIC: 0.25 µg/mL
E. feacalis; [6]
  MIC: 0.25 µg/mL
E. feacalis; [7]
  MIC: 0.5 µg/mL
E. feacium
  MIC50: 1 µg/mL
  MIC90: 1 µg/mL
  MICrange: 0.5 to 1 µg/mL
E. feacium; strain Efm 98 (Table 8 No. 21)
  MIC: 0.5 µg/mL
E. feacium; [8]
  MIC: 1 µg/mL
E. feacium; [9]
  MIC: 0.5 µg/mL
E. feacium; strain Efm N3 (Table 8 No. 23)
  MIC: 1 µg/mL
E. feacium; strain Efm N4 (Table 8 No. 24)
  MIC: 1 µg/mL
S. epidermidis MRSE
  MIC50: 0.5 µg/mL
  MIC90: 0.5 µg/mL
  MICrange: 0.25 to 0.5 µg/mL
S. epidermidis MRSE; [10]
  MIC: 0.25 µg/mL
S. epidermidis MRSE; [11]
  MIC: 0.5 µg/mL
S. epidermidis MRSE; [12]
  MIC: 0.5 µg/mL
S. epidermidis MRSE; [13]
  MIC: 0.5 µg/mL
S. epidermidis MRSE; [14]
  MIC: 0.25 µg/mL
S. epidermidis MRSE; [15]
  MIC: 0.5 µg/mL
S. epidermidis MRSE; [16]
  MIC: 0.5 µg/mL
S. epidermidis MRSE; [17]
  MIC: 0.5 µg/mL
S. epidermidis MRSE; [18]
  MIC: 0.5 µg/mL
S. epidermidis MRSE; [19]
  MIC: 0.5 µg/mL
S. epidermidis MSSE
  MIC50: 0.5 µg/mL
  MIC90: 0.5 µg/mL
  MICrange: 0.25 to 0.5 µg/mL
S. epidermidis MSSE; [20]
  MIC: 0.125 µg/mL
S. epidermidis MSSE; [21]
  MIC: 0.5 µg/mL
S. epidermidis MSSE; [22]
  MIC: 0.25 µg/mL
S. epidermidis MSSE; [23]
  MIC: 0.25 µg/mL
S. epidermidis MSSE; [24]
  MIC: 0.5 µg/mL
S. epidermidis MSSE; [25]
  MIC: 0.25 µg/mL
S. epidermidis MSSE; [26]
  MIC: 0.5 µg/mL
S. epidermidis MSSE; [27]
  MIC: 0.5 µg/mL
S. epidermidis MSSE; [28]
  MIC: 0.5 µg/mL
S. epidermidis MSSE; [29]
  MIC: 0.5 µg/mL
[1]
  MIC50: 0.5 µg/mL
  MIC90: 0.5 µg/mL
  MICrange: 0.5 to 1 µg/mL
[1]; [30]
  MIC: 0.5 µg/mL
[1]; [31]
  MIC: 1 µg/mL
[1]; [32]
  MIC: 0.5 µg/mL
[1]; [33]
  MIC: 0.5 µg/mL
[1]; [34]
  MIC: 0.5 µg/mL
[1]; [35]
  MIC: 0.5 µg/mL
[1]; [36]
  MIC: 0.5 µg/mL
[1]; [37]
  MIC: 0.5 µg/mL
[1]; [38]
  MIC: 0.5 µg/mL
[1]; [39]
  MIC: 0.5 µg/mL
[2]
  MIC50: 0.5 µg/mL
  MIC90: 0.5 µg/mL
  MICrange: 0.5 to 1 µg/mL
[2]; [40]
  MIC: 0.5 µg/mL
[2]; [41]
  MIC: 0.5 µg/mL
[2]; [42]
  MIC: 1 µg/mL
[2]; [43]
  MIC: 0.5 µg/mL
[2]; [44]
  MIC: 0.5 µg/mL
[2]; [45]
  MIC: 0.5 µg/mL
[2]; [46]
  MIC: 0.5 µg/mL
[2]; [47]
  MIC: 0.5 µg/mL
[2]; [48]
  MIC: 0.5 µg/mL
[2]; [49]
  MIC: 0.25 µg/mL
[2]; [50]
  MIC: 0.25 µg/mL
Staphylococcus aureus
  MIC: 0.5 µg/mL
[3]
  Solubility compared with the anhydride: sometimes more soluble than the anhydride
[3]; solvent 0.1N Hydrochloric acid
  Result: Dissolved
[3]; solvent 0.1N Sodium hydroxide
  Result: Insoluble
[3]; solvent Acetonitrile
  Result: Dissolved
[3]; solvent Ethanol
  Result: Dissolved
[3]; solvent Methanol
  Result: Dissolved
[3]; solvent Water, hydrate
  Result: Dissolved

## CC(=O)NC[C@H]1CN(c2ccc(N3CCN(c4ccccc4)CC3)c(F)c2)C(=O)O1 [3/4 hydrate, (S)—[N-3-(3′-fluoro-4′-(4″-phenylpiperazinyl))phenyl-2-oxo-5-oxazolidinyl]methyl acetamide 3/4 hydrate]
E. feacalis
  MIC50: 2 µg/mL
  MIC90: 4 µg/mL
  MICrange: 1 to 4 µg/mL
E. feacalis; strain Efa 54 (Table 8 No. 20)
  MIC: 2 µg/mL
E. feacalis; [4]
  MIC: 2 µg/mL
E. feacalis; [5]
  MIC: 1 µg/mL
E. feacalis; [6]
  MIC: 2 µg/mL
E. feacalis; [7]
  MIC: 4 µg/mL
E. feacium
  MIC50: 2 µg/mL
  MIC90: 4 µg/mL
  MICrange: 1 to 4 µg/mL
E. feacium; strain Efm 98 (Table 8 No. 21)
  MIC: 2 µg/mL
E. feacium; [8]
  MIC: 2 µg/mL
E. feacium; [9]
  MIC: 1 µg/mL
E. feacium; strain Efm N3 (Table 8 No. 23)
  MIC: 4 µg/mL
E. feacium; strain Efm N4 (Table 8 No. 24)
  MIC: 4 µg/mL
S. epidermidis MRSE
  MIC50: 1 µg/mL
  MIC90: 1 µg/mL
  MICrange: 1 µg/mL
S. epidermidis MRSE; [10]
  MIC: 1 µg/mL
S. epidermidis MRSE; [11]
  MIC: 1 µg/mL
S. epidermidis MRSE; [12]
  MIC: 1 µg/mL
S. epidermidis MRSE; [13]
  MIC: 1 µg/mL
S. epidermidis MRSE; [14]
  MIC: 1 µg/mL
S. epidermidis MRSE; [15]
  MIC: 1 µg/mL
S. epidermidis MRSE; [16]
  MIC: 1 µg/mL
S. epidermidis MRSE; [17]
  MIC: 1 µg/mL
S. epidermidis MRSE; [18]
  MIC: 1 µg/mL
S. epidermidis MRSE; [19]
  MIC: 1 µg/mL
S. epidermidis MSSE
  MIC50: 0.5 µg/mL
  MIC90: 1 µg/mL
  MICrange: 0.5 to 1 µg/mL
S. epidermidis MSSE; [20]
  MIC: 0.5 µg/mL
S. epidermidis MSSE; [21]
  MIC: 1 µg/mL
S. epidermidis MSSE; [22]
  MIC: 0.5 µg/mL
S. epidermidis MSSE; [23]
  MIC: 0.5 µg/mL
S. epidermidis MSSE; [24]
  MIC: 0.5 µg/mL
S. epidermidis MSSE; [25]
  MIC: 1 µg/mL
S. epidermidis MSSE; [26]
  MIC: 1 µg/mL
S. epidermidis MSSE; [27]
  MIC: 0.5 µg/mL
S. epidermidis MSSE; [28]
  MIC: 1 µg/mL
S. epidermidis MSSE; [29]
  MIC: 1 µg/mL
[1]
  MIC50: 1 µg/mL
  MIC90: 1 µg/mL
  MICrange: 0.5 to 1 µg/mL
[1]; [30]
  MIC: 0.5 µg/mL
[1]; [31]
  MIC: 1 µg/mL
[1]; [32]
  MIC: 1 µg/mL
[1]; [33]
  MIC: 0.5 µg/mL
[1]; [34]
  MIC: 1 µg/mL
[1]; [35]
  MIC: 1 µg/mL
[1]; [36]
  MIC: 1 µg/mL
[1]; [37]
  MIC: 1 µg/mL
[1]; [38]
  MIC: 0.5 µg/mL
[1]; [39]
  MIC: 1 µg/mL
[2]
  MIC50: 1 µg/mL
  MIC90: 1 µg/mL
  MICrange: 0.5 to 1 µg/mL
[2]; [40]
  MIC: 1 µg/mL
[2]; [41]
  MIC: 1 µg/mL
[2]; [42]
  MIC: 1 µg/mL
[2]; [43]
  MIC: 1 µg/mL
[2]; [44]
  MIC: 0.5 µg/mL
[2]; [45]
  MIC: 1 µg/mL
[2]; [46]
  MIC: 0.5 µg/mL
[2]; [47]
  MIC: 0.5 µg/mL
[2]; [48]
  MIC: 1 µg/mL
[2]; [49]
  MIC: 1 µg/mL
[2]; [50]
  MIC: 1 µg/mL
Staphylococcus aureus
  MIC: 1 µg/mL
[3]
  Solubility compared with the anhydride: sometimes more soluble than the anhydride
[3]; solvent 0.1N Hydrochloric acid
  Result: Dissolved
[3]; solvent 0.1N Sodium hydroxide
  Result: Insoluble
[3]; solvent Acetonitrile
  Result: Dissolved
[3]; solvent Ethanol
  Result: Dissolved
[3]; solvent Methanol
  Result: Dissolved
[3]; solvent Water, listed as ¾ hydrate, hydrate
  Result: Dissolved
